Laboratory results taken from the NIST ThermoML archive (doi:10.1016/j.jct.2018.02.019).
± gives the expanded uncertainty stated by the source.

Experiment: mn = molality of the nth substance listed, in mol/kg
Conditions: 298.15 K, Ring tensiometer

C[C@H](CCC(=O)NCCS(=O)(=O)[O-])[C@H]1CC[C@H]2[C@@H]3[C@H](O)C[C@@H]4C[C@H](O)CC[C@]4(C)[C@H]3C[C@H](O)[C@]12C.[Na+] [sodium taurocholate] + O
Conditions | surface tension liquid-gas [mN/m]
m1 = 0.00062 | 53.39 ± 2.1
m1 = 0.00093 | 50.95 ± 2.1
m1 = 0.00149 | 47.64 ± 2.1
m1 = 0.00208 | 45.58 ± 2.1
m1 = 0.00263 | 44.18 ± 2.1
m1 = 0.00313 | 43 ± 2.1
m1 = 0.00354 | 42.08 ± 2.1
m1 = 0.00392 | 41.48 ± 2.1
m1 = 0.00455 | 40.95 ± 2.1
m1 = 0.00489 | 40.5 ± 2.1
m1 = 0.00556 | 40.48 ± 2.1
m1 = 0.0062 | 40.51 ± 2.1
m1 = 0.00714 | 40.45 ± 2.1
m1 = 0.00804 | 40.5 ± 2.1
